The target in one test is Human Factor XIIa (Homo sapiens (Human), UniProt P00748). Kind of test: Determination of FXIIa inhibition (fluorogenic substrate H-DPro-Phe-Arg-AFC, IC50 assay). Type of test: biochemical. The note with it: substrate H-DPro-Phe-Arg-AFC at Km, 25° C.; class scale A-G. In a few lines:
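Human FXIIa incubated at 25° C with fluorogenic substrate H-DPro-Phe-Arg-AFC at its Km concentration and varying compound concentrations. Fluorescence release monitored over 5 min at 25° C; linear rate expressed as % of uninhibited activity to derive IC50.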

For the next test, the target named is Plasma Kallikrein (Homo sapiens (Human), UniProt P03952). Kind of test: Determination of related protease inhibition: Plasma Kallikrein (fluorogenic substrate at Km). Type of test: biochemical. To be noted: 25° C., read-out: IC50 (human PKal). The procedure:
Determination of Related Protease Inhibition
In vitro inhibition of related proteases was determined using an ([…] assay based on standard literature methods (see e.g. Shori et al., Biochem. Pharmacol., 1992, 43, 1209; Bouckaert et al., European Journal of Medicinal Chemistry 110 (2016) 181). Human serine protease enzymes Plasma Kallikrein, KLK1, FXa, Plasmin, Thrombin and Trypsin were assayed for enzymatic activity using an appropriate fluorogenic substrate at Km concentration, FXIa at fixed substrate concentration of 100 μM, and various concentrations of the test compound. Protease activity was measured by monitoring the accumulation of liberated fluorescence from the substrate over […]. The linear rate of fluorescence increase per minute was expressed as percentage (%) activity. IC50 values were calculated as the concentration of inhibitor giving 50% inhibition of the uninhibited enzyme activity (100%).

SMILES strings stand for the structures.

The source of these data is patent US20240059691A1 (KALVISTA PHARMACEUTICALS LIMITED, priority 2020, published 2024).

Chain of Plasma Kallikrein (P03952 391-638): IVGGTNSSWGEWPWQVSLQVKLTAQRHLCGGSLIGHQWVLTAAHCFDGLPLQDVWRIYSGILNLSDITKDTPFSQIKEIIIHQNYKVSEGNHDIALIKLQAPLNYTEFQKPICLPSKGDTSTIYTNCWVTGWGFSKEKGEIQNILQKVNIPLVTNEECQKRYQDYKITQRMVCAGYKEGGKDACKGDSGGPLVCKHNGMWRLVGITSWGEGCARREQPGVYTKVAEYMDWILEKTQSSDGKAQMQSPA
Chain of Plasma Kallikrein (P03952 20-390 partner): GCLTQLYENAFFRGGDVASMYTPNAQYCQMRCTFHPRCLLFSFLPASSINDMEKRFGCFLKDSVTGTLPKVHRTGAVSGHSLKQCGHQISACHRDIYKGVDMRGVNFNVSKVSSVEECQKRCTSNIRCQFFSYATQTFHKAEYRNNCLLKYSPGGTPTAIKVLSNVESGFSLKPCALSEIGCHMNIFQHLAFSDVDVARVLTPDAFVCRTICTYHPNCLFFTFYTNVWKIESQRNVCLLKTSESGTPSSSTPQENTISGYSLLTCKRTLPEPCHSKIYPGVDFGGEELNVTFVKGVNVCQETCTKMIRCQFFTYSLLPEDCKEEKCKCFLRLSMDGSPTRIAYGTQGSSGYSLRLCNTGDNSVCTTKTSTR
Chain of Human Factor XIIa (P00748 373-615): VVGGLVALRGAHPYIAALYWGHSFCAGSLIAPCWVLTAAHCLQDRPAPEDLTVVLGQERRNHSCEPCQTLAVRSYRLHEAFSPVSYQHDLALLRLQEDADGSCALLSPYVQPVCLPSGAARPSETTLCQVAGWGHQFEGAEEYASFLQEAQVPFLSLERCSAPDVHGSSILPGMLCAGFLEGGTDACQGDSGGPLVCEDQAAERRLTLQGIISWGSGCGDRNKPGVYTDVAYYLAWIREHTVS

As for `CC(C)(O)C1CN(c2ccc(CNc3cccc4c(N)nccc34)cn2)Cc2nccn21` (stereo not shown) [Example 1135, 2-(7-(5-(((1-aminoisoquinolin-5-yl)amino)methyl)pyridin-2-yl)-5,6,7,8-tetrahydroimidazo[1,2-a]pyrazin-5-yl)propan-2-ol], the IC50 – broadly, the concentration needed to halve the response being measured – on Human Factor XIIa is 3 to 10 µM; on Plasma Kallikrein it was greater than 40 µM.
Taken in the same sequence, the figures for `CN1CCC(CNc2ccc(CNc3cc(CO)c4cnccc4c3)cn2)CC1` [Example 1211, (6-(((6-(((1-methylpiperidin-4-yl)methyl)amino)pyridin-3-yl)methyl)amino)isoquinolin-8-yl)methanol] were 10 to 40 µM and 10 to 40 µM.
In the same order, the values of `FC(F)(F)c1nnc2n1CCN(c1ccc(CNc3ccnc4[nH]c(Cl)cc34)cn1)C2` [Example 1280, 2-chloro-N-((6-(3-(trifluoromethyl)-5,6-dihydro-[1,2,4]triazolo[4,3-a]pyrazin-7(8H)-yl)pyridin-3-yl)methyl)-1H-pyrrolo[2,3-b]pyridin-4-amine] are 0.3 to 1 µM and greater than 40 µM.
Taken in the same sequence, the figures for `Cc1cc(NCc2ccc(NCC3CCN(C)CC3)nc2)cc2ccncc12` [Example 1102, 8-methyl-N-((6-(((1-methylpiperidin-4-yl)methyl)amino)pyridin-3-yl)methyl)isoquinolin-6-amine] were 3 to 10 µM and 10 to 40 µM.
For `CN1CCN(c2cc(CNc3ccc4c(N)ncc(Cl)c4c3)ccn2)CC1` [Example 4427, 4-chloro-6-N-{[2-(4-methylpiperazin-1-yl)pyridin-4-yl]methyl}isoquinoline-1,6-diamine], the 50% inhibitory concentration (IC50) at Human Factor XIIa is 10 to 40 µM; at Plasma Kallikrein, greater than 40 µM.
Taken in the same sequence, the figures for `Cc1cnc2n1CCC(COc1cc(CNc3cccc4c(N)nccc34)ccn1)C2` (single isomer, unassigned) [Example 4444, (S*)-N5-((2-((3-methyl-5,6,7,8-tetrahydroimidazo[1,2-a]pyridin-7-yl)methoxy)pyridin-4-yl)methyl)isoquinoline-1,5-diamine] were 0.1 to 0.3 µM and 3 to 10 µM.
Taken in the same sequence, the figures for `CN1CCC(COc2cc(CNc3ccc4cnccc4c3F)ccn2)CC1` [Example 4466, 5-fluoro-N-((2-((1-methylpiperidin-4-yl)methoxy)pyridin-4-yl)methyl)isoquinolin-6-amine] were 3 to 10 µM and greater than 100 µM.
As to `FC(F)(F)c1nnc2n1CCN(c1ccc(CNc3ccc4cnccc4c3)cn1)C2` [Example 1283, N-((6-(3-(trifluoromethyl)-5,6-dihydro-[1,2,4]triazolo[4,3-a]pyrazin-7(8H)-yl)pyridin-3-yl)methyl)isoquinolin-6-amine], the figures for the IC50 on Human Factor XIIa and at Plasma Kallikrein were 3 to 10 µM and greater than 40 µM, respectively.
Take `Nc1nccc2c(NCc3cnc(OCC4CCn5ccnc5C4)nc3)cccc12` (stereo not shown) [Example 1042, 5-N-[(2-{5H,6H,7H,8H-imidazo[1,2-a]pyridin-7-ylmethoxy}pyrimidin-5-yl)methyl]isoquinoline-1,5-diamine]: the IC50 was 0.1 to 0.3 µM at Human Factor XIIa and greater than 4 µM at Plasma Kallikrein.
On to `Nc1ncc(F)c2cc(NCc3ccnc(OCC4CCn5ccnc5C4)c3)ccc12` (stereo not shown) [Example 4307, 4-fluoro-6-N-[(2-{5H,6H,7H,8H-imidazo[1,2-a]pyridin-7-ylmethoxy}pyridin-4-yl)methyl]isoquinoline-1,6-diamine], for which the half-inhibitory concentration (IC50) against Human Factor XIIa is 0.3 to 1 µM; at Plasma Kallikrein, greater than 4 µM.
In the same order, the values of `Nc1ncc(Cl)c2cc(NCc3ccnc(NCCC(=O)N4CCCC4)c3)ccc12` [Example 4428, 3-[(4-{[(1-amino-4-chloroisoquinolin-6-yl)amino]methyl}pyridin-2-yl)amino]-1-(pyrrolidin-1-yl)propan-1-one] are 1 to 3 µM and greater than 4 µM.
As for `CN1CCC(CNc2ccc(CNc3cnc4[nH]cc(C#N)c4c3)cn2)CC1` [Example 1212, 5-(((6-(((1-methylpiperidin-4-yl)methyl)amino)pyridin-3-yl)methyl)amino)-1H-pyrrolo[2,3-b]pyridine-3-carbonitrile], the IC50 on Plasma Kallikrein is greater than 100 µM.
Regarding `CN1CCC(CNc2ccc(CNc3cccn4ccnc34)cn2)CC1` [Example 1190, N-((6-(((1-methylpiperidin-4-yl)methyl)amino)pyridin-3-yl)methyl)imidazo[1,2-a]pyridin-8-amine], on Plasma Kallikrein, the IC50 was greater than 100 µM.
Still for that read-out and setting: the figure for `CNC(=O)c1cc(NCc2ccc(NCC3CCN(C)CC3)nc2)cc2ccncc12` [Example 1210, N-methyl-6-(((6-(((1-methylpiperidin-4-yl)methyl)amino)pyridin-3-yl)methyl)amino)isoquinoline-8-carboxamide] is greater than 100 µM; for `CN1CCC(CNc2ccc(CNc3ccnc4[nH]ncc34)cn2)CC1` [Example 1218, N-((6-(((1-methylpiperidin-4-yl)methyl)amino)pyridin-3-yl)methyl)-1H-pyrazolo[3,4-b]pyridin-4-amine] it is greater than 100 µM; for `CN1CCC(CNc2ccc(CNc3ccnc4[nH]c(C(=O)O)cc34)cn2)CC1` [Example 1253, 4-(((6-(((1-methylpiperidin-4-yl)methyl)amino)pyridin-3-yl)methyl)amino)-1H-pyrrolo [2,3-b]pyridine-2-carboxylic acid] it is greater than 40 µM.
With `Cc1cc2c(NCc3ccc(NCC4CCN(C)CC4)nc3)ccnc2n1C` [Example 1216, 1,2-dimethyl-N-((6-(((1-methylpiperidin-4-yl)methyl)amino)pyridin-3-yl)methyl)-1H-pyrrolo[2,3-b]pyridin-4-amine], the half-inhibitory concentration (IC50) at Plasma Kallikrein was greater than 100 µM.
On the same count and under the same terms, the figure for `CN1CCC(CNc2ccc(CNc3cc(C(=O)O)c4[nH]cc(Cl)c4c3)cn2)CC1` [Example 1204, 3-chloro-5-(((6-(((1-methylpiperidin-4-yl)methyl)amino)pyridin-3-yl)methyl)amino)-1H-indole-7-carboxylic acid] is greater than 100 µM; for `CN1CCC(CNc2ccc(CNc3ccnc4c3CC(C)(C)N4)cn2)CC1` [Example 1257, 2,2-dimethyl-N-((6-(((1-methylpiperidin-4-yl)methyl)amino)pyridin-3-yl)methyl)-2,3-dihydro-1H-pyrrolo[2,3-b]pyridin-4-amine] it is greater than 40 µM.
With `CN1CCC(CNc2ccc(CNc3ccnc4[nH]cc(C#N)c34)cn2)CC1` [Example 1221, 4-(((6-(((1-methylpiperidin-4-yl)methyl)amino)pyridin-3-yl)methyl)amino)-1H-pyrrolo[2,3-b]pyridine-3-carbonitrile], the half-inhibitory concentration (IC50) on Plasma Kallikrein was greater than 100 µM.
On to `CNC(=O)c1cc(NCc2ccc(NCC3CCN(C)CC3)nc2)cc2c(Cl)c[nH]c12` [Example 1220, 3-chloro-N-methyl-5-(((6-(((1-methylpiperidin-4-yl)methyl)amino)pyridin-3-yl)methyl)amino)-1H-indole-7-carboxamide], for which the IC50 on Plasma Kallikrein is greater than 40 µM.
Still for that read-out and setting: the figure for `CN1CCC(CNc2ccc(CNc3ccc4[nH]cnc4c3F)cn2)CC1` [Example 1191, 4-fluoro-N-((6-(((1-methylpiperidin-4-yl)methyl)amino)pyridin-3-yl)methyl)-1H-benzo[d]imidazol-5-amine] is greater than 100 µM; for `Cc1cc(NCc2ccc(NCC3CCN(C)CC3)nc2)c2cc[nH]c2c1` [Example 1215, 6-methyl-N-((6-(((1-methylpiperidin-4-yl)methyl)amino)pyridin-3-yl)methyl)-1H-indol-4-amine] it is greater than 100 µM.
The same measure, in the same setting: the figure for `Nc1ncc(Cl)c2cc(NCc3ccc(N4CCn5nccc5C4)nc3)ccc12` [Example 1157, 4-chloro-N6-((6-(6,7-dihydropyrazolo[1,5-a]pyrazin-5(4H)-yl)pyridin-3-yl)methyl)isoquinoline-1,6-diamine] is greater than 40 µM; for `COc1ccc2cc(NCc3ccc(NCC4CCN(C)CC4)nc3)ccc2c1` [Example 1180, 5-(((6-methoxynaphthalen-2-yl)amino)methyl)-N-((1-methylpiperidin-4-yl)methyl)pyridin-2-amine] it is greater than 100 µM.
Same read-out and setting: the figure for `CN1CCC(CNc2ccc(CNc3cc(C#N)nc4[nH]ccc34)cn2)CC1` [Example 1261, 4-(((6-(((1-methylpiperidin-4-yl)methyl)amino)pyridin-3-yl)methyl)amino)-1H-pyrrolo[2,3-b]pyridine-6-carbonitrile] is greater than 40 µM; for `COC(=O)c1cc2c(NCc3ccc(NCC4CCN(C)CC4)nc3)ccnc2[nH]1` [Example 1247, methyl 4-(((6-(((1-methylpiperidin-4-yl)methyl)amino)pyridin-3-yl)methyl)amino)-1H-pyrrolo[2,3-b]pyridine-2-carboxylate] it is greater than 100 µM.
As for `CN1CCC(CNc2ccc(CNc3cc(C(N)=O)nc4[nH]ccc34)cn2)CC1` [Example 1264, 4-(((6-(((1-methylpiperidin-4-yl)methyl)amino)pyridin-3-yl)methyl)amino)-1H-pyrrolo[2,3-b]pyridine-6-carboxamide], at Plasma Kallikrein, the IC50 was greater than 40 µM.
Still for that read-out and setting: the figure for `Nc1ncc(Cl)c2cc(NCc3ccnc(OCC4CCn5c(C(=O)O)cnc5C4)c3)ccc12` (stereo not shown) [Example 4453, 7-(((4-(((1-amino-4-chloroisoquinolin-6-yl)amino)methyl)pyridin-2-yl)oxy)methyl)-5,6,7,8-tetrahydroimidazo[1,2-a]pyridine-3-carboxylic acid] is greater than 40 µM.
